Source: US20240082222A1, “4-CHLORO-N-[2-[(4-CHLOROPHENYL)METHYL]-3-OXO-1,2,4-THIADIAZOL-5-YL]BENZAMIDE FOR USE IN MEDICINE” (Betagenon AB, priority 2021, published 2024)
“And” between values parts separate entries of the source, which are not always exact repeats. Identical values can stand only once. Counter-ions that a name gives are not always drawn. Like-named read-outs stand apart in the source and are kept apart here.

Experiment: Pharmacokinetic study in humans, sodium salt tablets, multiple dose (Example 3)
Format: in vivo, human
Method: An open, randomised, parallel-group study was conducted to evaluate the exposure and safety of 4-chloro-N-[2-[(4-chlorophenyl)methyl]-3-oxo-1,2,4-thiadiazol-5-yl]benzamide sodium salt tablets in doses of 212.12 mg and 424.24 mg (equivalent to 200 mg and 400 mg doses of 4-chloro-N-[2-[(4-chlorophenyl)methyl]-3-oxo-1,2,4-thiadiazol-5-yl]benzamide) at steady state in healthy volunteers (hereafter referred to as subjects).
Each “400 mg” tablet contained 424.24 mg of a sodium salt of 4-chloro-N-[2-[(4-chlorophenyl)methyl]-3-oxo-1,2,4-thiadiazol-5-yl]benzamide (Compound of formula II) which corresponds to 400 mg of the parent compound 4-chloro-N-[2-[(4-chlorophenyl)methyl]-3-oxo-1,2,4-thiadiazol-5-yl]benzamide.
Twenty (20) subjects were randomised (1:1) to treatment with either 200 mg (1 tablet of 200 mg) or 400 mg (1 tablet of 400 mg) of the test substance.
A screening visit (Visit 1) was performed within 28 days before randomisation and the start of IMP administration. The subjects arrived at the research clinic on Day 1 (Visit 2), randomised, and received the first administration of the test substance (200 mg or 400 mg as randomised).
The subjects returned to the clinic in the morning of Day 2 (Visit 3) for pre-dose PK sampling and subsequent administration of the test substance.
Before leaving the clinic, the subjects were provided with the test substance for 18 days once daily self-administration at home (Day 3 to Day 20).
After 18 days of home-based self-administration of the test substance, the subjects returned to the clinic in the morning of Day 21 (Visit 5) for pre-dose PK sampling and subsequent administration of the last dose of the test substance. The subjects remained at the clinic for at least 8 hours post-dose for safety assessments and additional PK sampling. In the morning of Day 22 (Visit 6), the subjects came for a last visit to the clinic for a final PK sample 24 hours after the last dose.
Venous blood samples (approximately 5 mL) for the determination of plasma concentrations of 4-chloro-N-[2-[(4-chlorophenyl)methyl]-3-oxo-1,2,4-thiadiazol-5-yl]benzamide after administration of the test substance were collected through an indwelling venous catheter on Days 2, 21 and 22.
The blood samples were collected in pre-labelled Li-Heparin tubes. All the collected blood samples were be centrifuged at 1500 G for 10 minutes to separate plasma within 60 minutes from the sample is drawn. The separated plasma from each blood sample was be divided into 2 aliquots in pre-labelled polypropylene cryotubes (A and B samples, approximately 750 μL in each tube) and frozen at <−70° C.
Samples for determination of plasma concentrations of 4-chloro-N-[2-[(4-chlorophenyl)methyl]-3-oxo-1,2,4-thiadiazol-5-yl]benzamide were analysed by Lablytica Life Science AB, Uppsala, Sweden by means of a validated LS-MS/MS method.
The data of plasma concentration to respective time points for the analyte (4-chloro-N-[2-[(4-chlorophenyl)methyl]-3-oxo-1,2,4-thiadiazol-5-yl]benzamide) were used for the pharmacokinetic analysis. Pharmacokinetic analysis was performed using non-compartmental analysis (NCA) module of Phoenix WinNonlin 8.1 software to determine the following pharmacokinetic parameters after multiple dose administration of test substance.
Primary endpoint: • Cmax, AUC0-last, Tmax at steady state Day 21 in each dose group.

[1] = 200 mg Dose Group, tablet once daily, Day 21, individual subjects, listed as O304 Na salt
[2] = 212 mg sodium salt in tablet form
[3] = 400 mg Dose Group, tablet once daily, Day 21, individual subjects, listed as O304 Na salt

Tlast (200 mg Dose Group, tablet once daily, Day 21, Mean): 24.01 h | Tlast (200 mg Dose Group, tablet once daily, Day 21, Median): 24.0 h | Tlast [1]: 24.0 h (8×) and 24.1 h | Tmax [1]: 24.0 h and 0.00 h and 2.00 h and 4.00 h | increase in systemic accumulation from Day 1 to Day 21 [2]: approximately seven-fold | increase in systemic exposure, tablet compared to capsules containing 200 mg [2]: up to two-fold | Tlast (400 mg Dose Group, tablet once daily, Day 21, Mean): 24.07 h | Tlast (400 mg Dose Group, tablet once daily, Day 21, Median): 24.0 h | Tlast [3]: 24.0 h (6×) and 24.4 h and 24.1 h (2×) | increase in systemic accumulation from Day 1 to Day 21 (424 mg sodium salt in tablet form): approximately five-fold | AUC(0-t) (human, plasma, oral, 200 mg, 200 mg Dose Group, tablet once daily, Day 21, Mean): 1940 µg·h/mL | concentration at 24 h (human, plasma, oral, 200 mg, 200 mg Dose Group, tablet once daily, Day 21, Mean, read-out: Clast): 80.4 µg/mL | Cmax (human, plasma, oral, 200 mg, 200 mg Dose Group, tablet once daily, Day 21, Mean, read-out: Cmax): 86.8 µg/mL | Tmax (human, plasma, oral, 200 mg, 200 mg Dose Group, tablet once daily, Day 21, Mean, read-out: Tmax): 10.9 h | AUC(0-t) (human, plasma, oral, 200 mg, 200 mg Dose Group, tablet once daily, Day 21, Median): 1720 µg·h/mL | concentration at 24 h (human, plasma, oral, 200 mg, 200 mg Dose Group, tablet once daily, Day 21, Median, read-out: Clast): 76.9 µg/mL | Cmax (human, plasma, oral, 200 mg, 200 mg Dose Group, tablet once daily, Day 21, Median, read-out: Cmax): 77.1 µg/mL | Tmax (human, plasma, oral, 200 mg, 200 mg Dose Group, tablet once daily, Day 21, Median, read-out: Tmax): 8 h | concentration at 24 h (human, plasma, oral, 200 mg, 200 mg dose group (212.12 mg sodium salt tablet once daily), 24 h after dose of Day 1, read-out: Clast at 24 hours, Mean): 11.4 µg/mL | concentration at 24 h (human, plasma, oral, 200 mg, 200 mg dose group (212.12 mg sodium salt tablet once daily), 24 h after dose of Day 1, read-out: Clast at 24 hours, Median): 11.2 µg/mL | concentration at 24 h (human, plasma, oral, 200 mg, 200 mg dose group (212.12 mg sodium salt tablet once daily), 24 h after dose of Day 21, read-out: Clast at 24 hours, Mean): 80.4 µg/mL | concentration at 24 h (human, plasma, oral, 200 mg, 200 mg dose group (212.12 mg sodium salt tablet once daily), 24 h after dose of Day 21, read-out: Clast at 24 hours, Median): 76.9 µg/mL | AUC(0-t) (human, plasma, oral, 400 mg, 400 mg Dose Group, tablet once daily, Day 21, Mean): 3110 µg·h/mL | concentration at 24 h (human, plasma, oral, 400 mg, 400 mg Dose Group, tablet once daily, Day 21, Mean, read-out: Clast): 129 µg/mL | Cmax (human, plasma, oral, 400 mg, 400 mg Dose Group, tablet once daily, Day 21, Mean, read-out: Cmax): 138 µg/mL | Tmax (human, plasma, oral, 400 mg, 400 mg Dose Group, tablet once daily, Day 21, Mean, read-out: Tmax): 11.2 h | AUC(0-t) (human, plasma, oral, 400 mg, 400 mg Dose Group, tablet once daily, Day 21, Median): 2930 µg·h/mL | concentration at 24 h (human, plasma, oral, 400 mg, 400 mg Dose Group, tablet once daily, Day 21, Median, read-out: Clast): 116 µg/mL | Cmax (human, plasma, oral, 400 mg, 400 mg Dose Group, tablet once daily, Day 21, Median, read-out: Cmax): 132 µg/mL | Tmax (human, plasma, oral, 400 mg, 400 mg Dose Group, tablet once daily, Day 21, Median, read-out: Tmax): 4.02 h | AUC(0-t) (human, plasma, oral, 400 mg, 400 mg Dose Group, tablet once daily, Day 21, individual subjects): 2930 µg·h/mL | Cmax (human, plasma, oral, 400 mg, 400 mg Dose Group, tablet once daily, Day 21, individual subjects, read-out: Cmax): 132 µg/mL | concentration at 24 h (human, plasma, oral, 400 mg, 400 mg dose group (424.24 mg sodium salt tablet once daily), 24 h after dose of Day 1, read-out: Clast at 24 hours, Mean): 24.9 µg/mL | concentration at 24 h (human, plasma, oral, 400 mg, 400 mg dose group (424.24 mg sodium salt tablet once daily), 24 h after dose of Day 1, read-out: Clast at 24 hours, Median): 21.5 µg/mL | concentration at 24 h (human, plasma, oral, 400 mg, 400 mg dose group (424.24 mg sodium salt tablet once daily), 24 h after dose of Day 21, read-out: Clast at 24 hours, Mean): 129 µg/mL | concentration at 24 h (human, plasma, oral, 400 mg, 400 mg dose group (424.24 mg sodium salt tablet once daily), 24 h after dose of Day 21, read-out: Clast at 24 hours, Median): 116 µg/mL | peak blood plasma concentration (repeated dosing of 212 mg in the form of a tablet): ≥ 85 µg/mL | accumulation in the blood plasma after repeat dosing (tablets, once daily): substantial accumulation
SMILES: O=C(Nc1nc(=O)n(Cc2ccc(Cl)cc2)s1)c1ccc(Cl)cc1 [Compound of formula II, sodium salt of 4-chloro-N-[2-[(4-chlorophenyl)methyl]-3-oxo-1,2,4-thiadiazol-5-yl]benzamide]
Clast [1]: 80.1 µg/mL and 109 µg/mL and 144 µg/mL and 51.7 µg/mL and 76.9 µg/mL and 62.3 µg/mL and 65.1 µg/mL and 81.3 µg/mL and 53.4 µg/mL | AUClast [3]: 4790 µg·h/mL and 3600 µg·h/mL and 2450 µg·h/mL and 2950 µg·h/mL and 3550 µg·h/mL and 2800 µg·h/mL and 2460 µg·h/mL | Clast [3]: 116 µg/mL and 201 µg/mL and 151 µg/mL and 96.7 µg/mL and 135 µg/mL and 144 µg/mL and 111 µg/mL and 106 µg/mL and 100 µg/mL | Cmax [3]: 201 µg/mL and 169 µg/mL and 106 µg/mL and 135 µg/mL and 168 µg/mL and 124 µg/mL and 105 µg/mL | Tmax [3]: 24.4 h and 4.00 h and 8.02 h and 24.1 h and 24.0 h
